{"source": "ChEMBL document CHEMBL1201862", "about": "“PubChem BioAssay data set” (2004)", "key": {"Mucolipin-3": {"target": "T1, Mucolipin-3 (Homo sapiens, UniProt Q8TDD5)", "T1 sequence (Q8TDD5 whole entry)": "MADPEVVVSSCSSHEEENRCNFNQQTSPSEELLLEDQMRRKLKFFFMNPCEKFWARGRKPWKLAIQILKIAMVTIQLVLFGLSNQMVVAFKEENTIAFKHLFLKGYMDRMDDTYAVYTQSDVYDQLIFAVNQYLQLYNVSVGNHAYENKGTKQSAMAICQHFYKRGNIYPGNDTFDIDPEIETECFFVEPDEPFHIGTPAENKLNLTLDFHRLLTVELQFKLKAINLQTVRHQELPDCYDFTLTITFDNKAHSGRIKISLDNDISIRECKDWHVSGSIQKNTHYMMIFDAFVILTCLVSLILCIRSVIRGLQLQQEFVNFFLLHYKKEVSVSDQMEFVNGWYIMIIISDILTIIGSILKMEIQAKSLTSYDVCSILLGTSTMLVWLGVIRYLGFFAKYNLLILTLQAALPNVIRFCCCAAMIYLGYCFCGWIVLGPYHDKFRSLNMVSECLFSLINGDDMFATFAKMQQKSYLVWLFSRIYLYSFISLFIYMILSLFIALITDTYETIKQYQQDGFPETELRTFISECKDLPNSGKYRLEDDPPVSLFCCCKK", "test": "Dose response cell-based high-throughput screening assay for agonists of the transient receptor potential channel ML3 (TRPML3). [Related pubchem assays: 1526, 1424, 1448 ]", "assay_type": "functional"}, "Ion channel NompC": {"target": "Ion channel NompC (Danio rerio, UniProt Q7T1G6)", "sequence (Q7T1G6 whole entry)": "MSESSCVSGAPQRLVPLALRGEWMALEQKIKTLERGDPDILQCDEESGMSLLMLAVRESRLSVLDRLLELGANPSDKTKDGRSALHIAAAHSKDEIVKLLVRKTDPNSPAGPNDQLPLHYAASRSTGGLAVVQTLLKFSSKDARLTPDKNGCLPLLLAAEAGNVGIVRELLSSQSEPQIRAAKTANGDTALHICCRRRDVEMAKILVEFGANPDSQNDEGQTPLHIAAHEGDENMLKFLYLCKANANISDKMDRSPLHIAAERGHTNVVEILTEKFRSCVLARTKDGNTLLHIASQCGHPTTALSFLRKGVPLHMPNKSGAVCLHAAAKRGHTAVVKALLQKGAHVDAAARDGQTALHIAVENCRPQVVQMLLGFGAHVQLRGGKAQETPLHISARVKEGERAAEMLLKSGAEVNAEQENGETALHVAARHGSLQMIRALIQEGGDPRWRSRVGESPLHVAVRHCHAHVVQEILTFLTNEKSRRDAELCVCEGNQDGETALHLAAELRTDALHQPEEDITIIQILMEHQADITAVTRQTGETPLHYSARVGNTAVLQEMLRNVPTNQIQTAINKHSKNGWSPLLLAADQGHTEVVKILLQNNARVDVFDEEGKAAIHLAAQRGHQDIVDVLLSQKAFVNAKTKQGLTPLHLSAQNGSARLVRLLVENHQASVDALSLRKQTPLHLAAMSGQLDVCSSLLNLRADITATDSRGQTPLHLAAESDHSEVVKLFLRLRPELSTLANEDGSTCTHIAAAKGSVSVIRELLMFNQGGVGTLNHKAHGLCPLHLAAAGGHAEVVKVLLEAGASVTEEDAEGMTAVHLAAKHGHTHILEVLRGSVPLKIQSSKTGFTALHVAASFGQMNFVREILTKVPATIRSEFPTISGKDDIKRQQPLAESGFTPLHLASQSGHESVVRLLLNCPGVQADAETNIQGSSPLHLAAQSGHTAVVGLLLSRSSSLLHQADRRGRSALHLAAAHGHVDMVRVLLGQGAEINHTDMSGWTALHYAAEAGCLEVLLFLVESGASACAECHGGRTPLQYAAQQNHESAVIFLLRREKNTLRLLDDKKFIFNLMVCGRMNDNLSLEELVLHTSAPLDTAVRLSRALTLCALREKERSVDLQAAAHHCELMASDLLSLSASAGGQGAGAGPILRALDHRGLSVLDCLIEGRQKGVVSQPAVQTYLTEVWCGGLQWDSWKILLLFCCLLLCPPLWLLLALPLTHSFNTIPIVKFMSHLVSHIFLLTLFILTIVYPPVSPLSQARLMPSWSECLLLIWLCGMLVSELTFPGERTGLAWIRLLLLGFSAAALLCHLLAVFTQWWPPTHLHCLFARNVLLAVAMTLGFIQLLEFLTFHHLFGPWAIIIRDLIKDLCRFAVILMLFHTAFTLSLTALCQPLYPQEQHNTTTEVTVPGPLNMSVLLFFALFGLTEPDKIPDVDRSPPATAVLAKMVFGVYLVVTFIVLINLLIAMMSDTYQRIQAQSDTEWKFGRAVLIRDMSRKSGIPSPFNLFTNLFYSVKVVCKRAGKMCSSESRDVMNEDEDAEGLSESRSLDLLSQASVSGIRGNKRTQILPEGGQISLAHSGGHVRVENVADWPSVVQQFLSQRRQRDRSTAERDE", "test": "Fluorescence counterscreen assay for TRPML3 agonists: dose response cell-based high-throughput screening assay to identify agonists of the transient receptor potential channel N1 (TRPN1). [Related pubchem assays: 1526, 1424, 1448 ]", "assay_type": "functional"}, "NADPH oxidase 1": {"target": "T2, NADPH oxidase 1 (Homo sapiens, UniProt Q9Y5S8)", "T2 sequence (Q9Y5S8 whole entry)": "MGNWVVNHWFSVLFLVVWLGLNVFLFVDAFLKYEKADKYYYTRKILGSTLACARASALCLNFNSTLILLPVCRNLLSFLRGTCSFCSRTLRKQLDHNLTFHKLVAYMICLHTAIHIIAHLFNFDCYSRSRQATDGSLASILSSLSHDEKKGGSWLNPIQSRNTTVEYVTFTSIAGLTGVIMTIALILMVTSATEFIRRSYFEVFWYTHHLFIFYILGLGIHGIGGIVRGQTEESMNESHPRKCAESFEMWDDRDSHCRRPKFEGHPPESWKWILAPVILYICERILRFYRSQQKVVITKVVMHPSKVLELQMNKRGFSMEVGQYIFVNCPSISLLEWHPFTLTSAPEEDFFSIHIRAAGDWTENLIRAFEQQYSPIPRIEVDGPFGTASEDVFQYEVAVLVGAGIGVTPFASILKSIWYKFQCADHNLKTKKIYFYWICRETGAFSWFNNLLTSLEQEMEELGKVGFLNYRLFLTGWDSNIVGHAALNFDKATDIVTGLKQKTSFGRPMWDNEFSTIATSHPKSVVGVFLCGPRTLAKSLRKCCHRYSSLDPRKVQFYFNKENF", "assay_type": "functional, cell-based"}, "[1]": {"test": "MC4R antagonists, dose response, counter-screen for LGR2 antagonist project, cell-based, plate reader, cherry pick (AID 743444);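 further: transfected HEK 293 cells stimulated with alpha-MSH peptide; potency of inhibitors of the alpha-MSH evoked signal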", "assay_type": "functional"}, "[2]": {"test": "LGR2 antagonists, dose response, cell-based, HEK293, CRE-luciferase reporter, cherry pick, set 2 (AID 743343);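 further: transfected cells were stimulated with diluted bursicon conditioned medium after compound addition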", "assay_type": "functional"}, "[3]": {"test": "HepG2 cell cytotoxicity, dose response, cytotoxicity control, plate reader, cherry-pick, antagonist series (AID 743416)", "assay_type": "functional, cell-based"}, "[4]": {"test": "HEK293 cell cytotoxicity, dose response, cytotoxicity control, plate reader, cherry-picked samples (AID 743446)", "assay_type": "functional, cell-based"}, "[5]": {"target": "Luciferin 4-monooxygenase (Photinus pyralis, UniProt P08659)", "sequence (P08659 whole entry)": "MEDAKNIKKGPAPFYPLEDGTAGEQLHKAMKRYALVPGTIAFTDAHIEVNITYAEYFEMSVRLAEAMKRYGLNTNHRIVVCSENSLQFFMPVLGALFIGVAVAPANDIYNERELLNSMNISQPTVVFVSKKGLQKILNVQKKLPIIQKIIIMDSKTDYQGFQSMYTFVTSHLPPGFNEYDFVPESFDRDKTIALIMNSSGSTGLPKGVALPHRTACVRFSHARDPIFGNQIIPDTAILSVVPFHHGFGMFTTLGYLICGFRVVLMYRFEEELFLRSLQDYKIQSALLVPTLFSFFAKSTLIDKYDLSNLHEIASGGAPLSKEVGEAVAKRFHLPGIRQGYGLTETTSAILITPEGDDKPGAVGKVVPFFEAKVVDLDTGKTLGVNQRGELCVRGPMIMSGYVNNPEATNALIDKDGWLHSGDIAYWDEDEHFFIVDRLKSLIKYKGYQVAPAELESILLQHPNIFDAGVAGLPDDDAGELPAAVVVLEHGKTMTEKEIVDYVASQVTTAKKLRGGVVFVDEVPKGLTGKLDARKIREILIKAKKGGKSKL", "test": "Counter Screen for Luciferase-based Assay Positives. [Related pubchem assays: 620, 618, 411 ]"}, "HEK293": {"tested_on": "HEK293", "test": "inhibitors of LMP1-driven NF-kB reporter, dose response, cell-based, HEK293, luciferase, cherry-pick (AID 588343)", "assay_type": "functional, Homo sapiens", "details": "Homo sapiens, HEK293"}, "HT-1080": {"tested_on": "HT-1080", "test": "cytotoxicity in HT1080 fibrosarcoma cells, cell-based, fluorescence readout (AID 620)", "assay_type": "functional", "details": "Homo sapiens"}, "[6]": {"test": "A549 cell cytotoxicity, dose response, cytotoxicity control, plate reader, cherry-pick, antagonist series (AID 743412)", "assay_type": "functional, cell-based"}, "Vero": {"tested_on": "Vero", "test": "cells", "assay_type": "functional", "details": "Chlorocebus sabaeus"}, "Caspase-6": {"target": "T3, Caspase-6 (Homo sapiens, UniProt P55212)", "T3 sequence (P55212 whole entry)": "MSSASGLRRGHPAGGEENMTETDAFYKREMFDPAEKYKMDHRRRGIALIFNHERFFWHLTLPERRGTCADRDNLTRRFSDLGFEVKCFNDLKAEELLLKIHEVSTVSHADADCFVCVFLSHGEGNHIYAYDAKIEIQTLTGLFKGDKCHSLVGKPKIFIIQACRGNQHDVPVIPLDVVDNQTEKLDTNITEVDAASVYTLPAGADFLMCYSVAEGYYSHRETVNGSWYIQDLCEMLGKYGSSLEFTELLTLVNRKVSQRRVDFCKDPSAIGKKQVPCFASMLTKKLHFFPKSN", "test": "human caspase-6 inhibitors, dose response, biochemical, VEID-R110 fluorescence, cherry-pick (AID 720632)"}, "[7]": {"target": "T4, Heat shock factor protein 1 (Mus musculus, UniProt P38532)", "T4 sequence (P38532 whole entry)": "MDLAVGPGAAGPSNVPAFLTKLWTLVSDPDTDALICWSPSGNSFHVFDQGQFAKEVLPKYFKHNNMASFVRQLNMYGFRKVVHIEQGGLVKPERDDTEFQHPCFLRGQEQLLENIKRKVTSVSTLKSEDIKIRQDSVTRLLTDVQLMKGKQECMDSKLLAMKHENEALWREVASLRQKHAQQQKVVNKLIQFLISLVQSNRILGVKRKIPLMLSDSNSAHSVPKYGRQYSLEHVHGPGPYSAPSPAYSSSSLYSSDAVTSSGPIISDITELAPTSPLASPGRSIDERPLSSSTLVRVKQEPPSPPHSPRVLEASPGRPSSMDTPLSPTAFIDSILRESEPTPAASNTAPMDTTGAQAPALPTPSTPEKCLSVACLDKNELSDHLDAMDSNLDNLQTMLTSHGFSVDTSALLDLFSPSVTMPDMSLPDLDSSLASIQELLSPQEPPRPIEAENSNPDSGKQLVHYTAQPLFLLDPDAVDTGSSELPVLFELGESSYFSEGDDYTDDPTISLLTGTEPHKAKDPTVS", "test": "HSF1 potentiators in luciferase reporter cells, confirmation, cell-based, NIH3T3, luminescence, dose retest (AID 435004);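 further: stress induced by proteasome inhibitor MG132 added 30 min after compound; actives raise luminescence as potentiators of the MG132 stress response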", "assay_type": "functional"}, "[8]": {"test": "A Cell Based Secondary Assay To Explore Cytotoxicity of Compounds that Sensitize Mycobacterium Tuberculosis to Beta-Lactam Antibiotics.", "assay_type": "functional"}, "[9]": {"test": "cytotoxicity in OVCAR8 ovarian cancer cells, dose response, PAX8 project, cell-based, plate reader, dry powder samples (AID 743197)", "assay_type": "functional", "details": "OVCAR-8"}, "[10]": {"test": "NIH:OVCAR-3 ovarian cancer cell cytotoxicity, dose response, PAX8 inhibitor project, plate reader, dry powder samples (AID 743044)", "assay_type": "functional, cell-based"}, "Paired box protein Pax-8": {"target": "Paired box protein Pax-8 (Homo sapiens, UniProt Q06710)", "sequence (Q06710 whole entry)": "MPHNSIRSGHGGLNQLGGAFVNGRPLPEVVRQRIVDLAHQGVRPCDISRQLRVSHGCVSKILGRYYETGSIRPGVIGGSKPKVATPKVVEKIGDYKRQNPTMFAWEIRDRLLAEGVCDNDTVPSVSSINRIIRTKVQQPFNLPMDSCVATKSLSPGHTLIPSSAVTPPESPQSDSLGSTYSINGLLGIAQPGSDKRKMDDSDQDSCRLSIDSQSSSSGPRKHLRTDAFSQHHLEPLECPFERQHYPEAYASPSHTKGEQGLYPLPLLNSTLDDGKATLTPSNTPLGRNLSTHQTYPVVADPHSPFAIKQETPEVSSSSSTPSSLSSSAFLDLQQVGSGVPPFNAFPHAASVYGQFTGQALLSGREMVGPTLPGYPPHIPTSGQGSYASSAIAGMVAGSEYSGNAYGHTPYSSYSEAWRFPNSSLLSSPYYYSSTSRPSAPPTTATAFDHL", "test": "inhibitors of PAX8-driven TPO luciferase reporter, dose response, RMG-I cells, cherry-pick (AID 687027);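 further: luciferase reporter driven by Pax8 target thyroperoxidase promoter measured by SteadyGlo luminescence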", "assay_type": "functional, cell-based"}, "[11]": {"test": "HepG2 cell cytotoxicity, dose response, cytotoxicity control, cherry-picked samples (AID 1159577)", "assay_type": "functional, cell-based"}, "[12]": {"test": "P. falciparum Dd2 growth inhibitors, dose response, SYBR Green, cherry-picked samples (AID 1159567)", "assay_type": "functional, cell-based"}, "[13]": {"test": "P. falciparum 3D7-ScDHODH growth inhibitors, dose response, SYBR Green, dry powder samples (AID 1159570);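 further: parasite growth measured after 72 hours of compound exposure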", "assay_type": "functional, cell-based"}, "[14]": {"test": "P. falciparum ATP4 D1247Y mutant growth inhibitors, dose response, NITD609-resistant line, SYBR Green, dry powder (AID 1159571);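 further: parasites synchronized at ring stage by sorbitol before testing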", "assay_type": "functional, cell-based"}, "[15]": {"test": "HepG2 cell cytotoxicity, dose response, cytotoxicity control, plate reader, dry powder samples (AID 1159569);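 further: inhibitor potency with signal falling toward the positive control level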", "assay_type": "functional, cell-based"}, "[16]": {"test": "P. falciparum Dd2 growth inhibitors, dose response, SYBR Green, dry powder samples (AID 1159566);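 further: potency for growth inhibition with lower SYBR green DNA signal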", "assay_type": "functional, cell-based"}}, "note": "Activity calls are given as the source filed them.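 Wherever IC50 is given: Cell-based assay with luminescence read-out, IC50 derived from inhibitor dose-response curves; intracellular ROS from endogenous NOX1 in intact HT29 colon cancer cells; potency of inhibitors that lower the ROS luminescence signal.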"}
{"smiles": "CCNC(=S)N(Cc1cccs1)Cc1cc2cc(OCC)ccc2nc1O", "values": [{"measurement": "EC50", "setting": "Mucolipin-3", "value": "> 29.9 µM (not active)"}, {"measurement": "EC50", "setting": "Ion channel NompC", "value": "> 29.9 µM (not active)"}]}
{"smiles": "C=C(NNc1c(Cl)c(Cl)nc(C(=O)O)c1Cl)c1ccc(O)cc1", "values": [{"measurement": "IC50", "setting": "NADPH oxidase 1", "value": "4.45 µM (active)"}]}
{"smiles": "c1ccc(-c2nc(-c3ccccn3)no2)cc1", "values": [{"measurement": "AC50", "setting": "[1]", "value": "2.47 µM (active)"}, {"measurement": "AC50", "setting": "[2]", "value": "2.65 µM (active)"}, {"measurement": "AC50", "setting": "[3]", "value": "9.19 µM (active)"}, {"measurement": "AC50", "setting": "[4]", "value": "7.31 µM (active)"}, {"measurement": "EC50", "setting": "[5]", "value": "0.35 µM (active)"}, {"measurement": "AC50", "setting": "HEK293", "value": "1.68 µM (active)"}, {"measurement": "EC50", "setting": "HT-1080", "value": "> 50 µM (not active)"}, {"measurement": "AC50", "setting": "[6]", "value": "6.2 µM (active)"}]}
{"smiles": "O=[N+]([O-])c1ccc(/C=[N+](\\[O-])[C@@H]2CCCC[C@@H]2/[N+]([O-])=C/c2ccc([N+](=O)[O-])o2)o1", "values": [{"measurement": "CC50", "setting": "Vero", "value": "14.8 µM (active)"}, {"measurement": "AC50", "setting": "Caspase-6", "value": "41.1 µM (active)"}, {"measurement": "EC50", "setting": "[7]", "value": "8.46 µM (active)"}]}
{"smiles": "Nc1c(Cl)cc(-c2csc(N3CCCC3c3nc4cc(Cl)c(N5CCCCC5)cc4n3CCCO)n2)cc1Cl", "note": "(stereo not drawn)", "values": [{"measurement": "CC50", "setting": "[8]", "value": "> 40 µM (active)"}]}
{"smiles": "COc1ccccc1C#Cc1ccc2c(c1)O[C@@H](CN(C)Cc1cncnc1)[C@H](C)CN([C@H](C)CO)S2(=O)=O", "values": [{"measurement": "AC50", "setting": "[9]", "value": "29 µM (active)"}, {"measurement": "AC50", "setting": "[10]", "value": "32.6 µM (active)"}, {"measurement": "AC50", "setting": "Paired box protein Pax-8", "value": "2.16 µM (active)"}]}
{"smiles": "CCOC(=O)[C@H](Cc1c[nH]c2ccccc12)NC(=O)CN=[N+]=[N-]", "values": [{"measurement": "AC50", "setting": "Caspase-6", "value": "6.78 µM (active)"}]}
{"smiles": "C/C=C/c1ccc([C@H]2[C@H](CO)N(c3nc(CC)cs3)[C@H]2CNC(C)C)cc1", "values": [{"measurement": "AC50", "setting": "[11]", "value": "20 µM (active)"}, {"measurement": "AC50", "setting": "[12]", "value": "0.829 µM (active)"}]}
{"smiles": "C[C@@H]1CN([C@@H](C)CO)C(=O)c2cccc(NC(=O)c3ccc(-c4nccs4)cc3)c2O[C@@H]1CN(C)C(=O)Nc1cccc2ccccc12", "values": [{"measurement": "AC50", "setting": "[11]", "value": "> 39 µM (inactive)"}, {"measurement": "AC50", "setting": "[13]", "value": "0.956 µM (active)"}, {"measurement": "AC50", "setting": "[14]", "value": "0.733 µM (active)"}, {"measurement": "AC50", "setting": "[15]", "value": "53.3 µM (active)"}, {"measurement": "AC50", "setting": "[16]", "value": "0.334 µM (active)"}, {"measurement": "AC50", "setting": "[12]", "value": "2.9 µM (active)"}]}
{"smiles": "Oc1ccc(-c2nc(-c3ccccc3)c(-c3ccccc3)[nH]2)cc1", "values": [{"measurement": "IC50", "setting": "NADPH oxidase 1", "value": "> 17 µM (not active)"}]}
